Entries after “also recorded” stand apart in the source; their conditions may differ.
Columns and labels:
[1] = target: T1, Human recombinant ATG7 protein (Homo sapiens, UniProt O95352); test: Labeling of ATG7 with probes in vitro (click chemistry, in-gel fluorescence); assay type: binding; details: 3 hours; for labeling efficiency of ATG7 (intensity of the fluorescent bands): catalytically active ATG7 (0.5 μM), increasing probe concentrations, click chemistry, in-gel fluorescence
T1 construct: purchased R&D Systems
T1 sequence (O95352 1-703): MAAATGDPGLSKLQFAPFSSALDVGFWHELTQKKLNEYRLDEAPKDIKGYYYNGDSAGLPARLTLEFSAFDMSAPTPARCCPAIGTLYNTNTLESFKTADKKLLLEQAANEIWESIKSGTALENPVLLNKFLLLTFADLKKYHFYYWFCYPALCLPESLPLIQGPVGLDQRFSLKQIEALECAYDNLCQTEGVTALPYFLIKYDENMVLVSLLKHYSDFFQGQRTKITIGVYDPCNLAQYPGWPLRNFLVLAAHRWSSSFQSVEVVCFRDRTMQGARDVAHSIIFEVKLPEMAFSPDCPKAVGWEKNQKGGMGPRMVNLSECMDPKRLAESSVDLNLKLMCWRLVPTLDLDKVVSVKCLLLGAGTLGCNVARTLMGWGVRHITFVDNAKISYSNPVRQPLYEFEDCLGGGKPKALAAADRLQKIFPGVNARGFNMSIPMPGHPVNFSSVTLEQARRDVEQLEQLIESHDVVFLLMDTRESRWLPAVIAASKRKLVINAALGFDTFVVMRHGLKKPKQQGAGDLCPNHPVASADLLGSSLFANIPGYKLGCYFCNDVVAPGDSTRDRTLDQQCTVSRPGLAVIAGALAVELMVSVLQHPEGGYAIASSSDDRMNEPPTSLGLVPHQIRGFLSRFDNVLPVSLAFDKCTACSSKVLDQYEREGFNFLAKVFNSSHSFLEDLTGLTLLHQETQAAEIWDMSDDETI
Method: Following the synthesis, we incubated probes 1, 2, and 3 with catalytically active ATG7 (0.5 μM) for 3 hours. Then the click chemistry was followed to measure the levels of small molecule labeled ATG7. The intensity of the fluorescent bands was interpreted as the labeling efficiency of the probes.
(§1) Subsequently, increasing concentrations of compounds 4 and 5 were incubated with catalytically active ATG7 (0.5 μM) for 3 hours. […] We also conducted an ATP-competition reaction to test if compounds 4 and 5 utilize the ATP binding site for the covalent labeling. ATG7 was incubated with compound 4 or 5 in the presence or absence of ATP (100 μM) (FIG. 5B).
(§2) General Information. Human recombinant ATG7 protein was purchased from R&D Systems and used without further purification. In-gel fluorescence imaging was performed on a Typhoon 9600 (GE Healthcare).
(§3) Labeling of ATG7 with probes 1, 2, 3, 4, and 5 in vitro. ATG7 (0.4 μM) and TCEP (100 μM) in buffer containing HEPES (25 mM, pH 7.6), NaCl (50 mM), and MgCl2 (4 mM) were treated with increasing concentrations of each probe at room temperature (10 μL total volume) for 2 h. The reaction mixtures were treated with 1 μl of 10% SDS followed by 4 μL of click reaction mixture: CuSO4 (final conc. 1 mM), TBTA (final conc. 100 μM), sodium ascorbate (final conc. 1 mM), and Azide-Fluor-585 (final conc. 100 μM). The reaction mixture was incubated for 30 min at r.t., followed by the addition of 3 μL of 6× Laemmli loading buffer, and resolved by 12% SDS-PAGE. The bottom of the gel was cut to eliminate the excessive amount of Azide-Fluor-585. The acrylamide gel was kept in 50% ddH2O, 40% EtOH and 10% Acetic acid solution until it was subjected to the in-gel scanning fluorescence imaging (Typhoon 9600, GE Healthcare). The proteins in the gel were then visualized with Instant Blue™.

[2] = system: A549 cells; test: In-gel fluorescent detection of probe-labeled proteomes in live A549 cells; assay type: cell-based; details: 10 μM, 2 hours; for cell permeability and labeling of proteins in live cells: rhodamine azide click, in-gel fluorescence
Method: We investigated the labeling of proteins with the developed probes inside of live cells. To this end, A549 cells were treated with 10 μM of compounds 1, 2, 3, and 5 for 2 hours. Then, the lysate was treated with click reaction mixtures containing rhodamine azide.
A549 cells were grown in RPMI medium (Life Technologies) supplemented with 10% fetal bovine serum in 6-well plates. Confluent A549 cells (9.6 cm^2 per condition in 6-well plates) were washed with Dulbecco's Phosphate-Buffered Saline (DPBS, 3 mL) and the growth medium was replaced with RPMI medium containing each probe. After 2 h incubation time at 37° C., cells were washed with DPBS (3 mL). 160 μL of lysis buffer containing Tris HCl (25 mM, pH 7.6), NaCl (150 mM), 1% NP40, 1% sodium deoxycholate, 0.1% SDS, and protease inhibitor cocktail for mammalian cells (Sigma-Aldrich, 1:100 v/v) was added to each well of the 6-well plates, and cells were lysed on ice for 10 min. The gathered lysate was flown through 21G syringe for the complete breakdown. The complete lysis of the cells was monitored using Carl Zeiss Primo Vert inverted microscope. 10 μL of each cell lysate was treated with sodium dodecyl sulfate (final concentration 1%), followed by the incubation with the click chemistry reagents (CuSO4 (final conc. 1 mM), TBTA (final conc. 100 μM), sodium ascorbate (final conc. 1 mM) and Azide-Fluor-585 (final conc. 100 μM) for 30 min. Proteins were resolved by 10% SDS-PAGE, and subjected to in-gel scanning fluorescence imaging to visualize the covalent adducts. Total proteins in the gel were then visualized by staining the gel with Instant Blue™.

[3] = target: T1, Human recombinant ATG7 protein; test: ATP-competition reaction for covalent labeling of ATG7; assay type: binding; details: ATP (100 μM) present or absent
Method: as §1, §2
as §3, with “The bottom of the gel was cut to eliminate the excessive amount of Azide-Fluor-585.” left out, “The proteins in the gel were then visualized with Instant Blue™.” left out

labeling of ATG7 at 10 μM concentration ([1]; probe 10 μM, ATG7 (0.5 μM))	Compound	labeling efficiency of ATG7 (intensity of the fluorescent bands) [1]	cell permeability and labeling of proteins in live cells [2]	labeling of ATG7 in the presence of ATP compared to ATP free conditions [3]	off-targets (non-specifically labeled proteins) in live cells [2]
little labeling	C#CCCCCNS(=O)(=O)C=C [Compound 1]	inefficient labeling	cell permeable and able to label proteins in live cells	–	–
–	C#CCNc1ncnc2c1ncn2[C@@H]1O[C@H](CNS(=O)(=O)C=C)[C@@H](O)[C@H]1O [Compound 2]	–	cell permeable and able to label proteins in live cells	–	–
–	C#Cc1cccc(Nc2ncnc3c2ncn3[C@@H]2O[C@H](CNS(=O)(=O)C=C)[C@@H](O)[C@H]2O)c1 [Compound 3]	higher labeling efficiency than 2; also recorded: much higher labeling efficiency than propargyl alkyne containing probes; also recorded: most potently labels ATG7	cell permeable and able to label proteins in live cells	–	–
–	C#CCNc1ncnc2c1ncn2[C@@H]1O[C@H](COS(=O)(=O)C=C)[C@@H](O)[C@H]1O [Compound 4]	–	–	significantly dropped; also recorded: utilize ATP binding site for the ATG7 labeling	–
–	C#Cc1cccc(Nc2ncnc3c2ncn3[C@@H]2O[C@H](COS(=O)(=O)C=C)[C@@H](O)[C@H]2O)c1 [Compound 5]	stronger intensity of the fluorescent bands than compound 4-treated ATG7; also recorded: much higher labeling efficiency than propargyl alkyne containing probes; also recorded: greater labeling potency than compound 4	cell permeable and able to label proteins in live cells	significantly dropped; also recorded: utilize ATP binding site for the ATG7 labeling	more numbers of off-targets when compared with compound 3; also recorded: strongest off target effects
